Experimental data as given in PMC10747602, “Dose Response, Dosimetric, and Metabolic Evaluations of Replacement PFAS Perfluoro-(2,5,8-trimethyl-3,6,9-trioxadodecanoic) Acid (HFPO-TeA)” (Toxics, 2023).
Values joined by “and” are separate entries in the source; they are usually repeats but may differ in a detail not shown here. Equal values may be shown once.

What was measured:
[1] = Hepatocyte metabolic stability (clearance) assay, human hepatocytes; conditions: human, hepatocytes, 1000 nM
Protocol: (§1) Information on the chemicals and materials used in the hepatocyte metabolic work can be found in Supplementary Text S9 and Table S3. In vitro evaluations of hepatocyte metabolic stability were performed in human and rat hepatocytes, as previously described. Briefly, pooled, cryopreserved hepatocyte suspensions were thawed, assessed for viability, and then diluted in William’s medium E containing dexamethasone and cell maintenance cocktail B to achieve a cell density of 50,000 cells/100 µL. The assay was started by adding hepatocyte suspensions to wells of 96-well polypropylene plates containing an equal volume of media with 2 µM of analyte (final assay concentration: 1 µM). Plates were placed in a 37 °C cell culture incubator (5% CO2) on a shaker set to 200 rpm. Time points assessed were T0, T15, T30, T60, T120, and T240 min. At each time point, the plates were removed from the shaker and the incubates were crashed with an equal volume of ice-cold ACN containing 1.2% FA and 16 ng/mL of ^13C3 -HFPO-DA. After chilling and centrifugation at 4122× g, the supernatants were transferred to new collection plates and stored at −70 °C until analysis for the parent compound on the Waters instrumentation described below. Immediately prior to analysis, samples were thawed, vortexed, and centrifuged at 4200× g, and then diluted 1:4 in 95:5 H2O/ACN with 2.5 mM of ammonium acetate. Negative controls, including no cell controls and metabolically inactivated hepatocytes, were run concurrently to assess the chemical stability over the time course.
(§2) Intrinsic clearance (Clint; hepatic clearance) calculations are detailed in Supplementary Text S9 [57].
(§3) Targeted, quantitative analysis of in vitro hepatocyte metabolic stability and plasma protein binding assay samples was conducted on a Waters Xevo-TQS micro mass spectrometer (Waters, Milford, MA, USA) ultra-high-performance liquid chromatography tandem mass spectrometry system (UPLC-MS/MS), modified with a PFAS analysis kit. Samples were analyzed in negative ion mode with UniSpray ionization. A CORTECS T3 column (Waters CORTECS, 3 × 100 mm, particle size 2.7 µm) was used for chromatographic separation with a flow rate of 0.6 mL/min and a temperature of 55 °C. Gradient elution was used with eluent A (95:5 H2O/ACN) and eluent B (95:5 ACN/H2O) with 2.5 mM of ammonium acetate. The gradient is available in Table S11. Additional details for MS parameters are found in Table S12 and monitored transitions are found in Table S13.
(§4) Table S2: Data processing parameters used with Sciex MarkerView 1.3.1.
(§5) Support ing Text S9: Hepatocyte Metabolic Stability Assay Materials, Chemicals, and Calculations
(§6) Pooled human and rat cryopreserved primary hepatocyte suspensions were both obtained from
(§7) BioIVT, a US Food and Drug Administration-licensed and inspected donor center, and produced using
(§8) non-transplantable tissue.
(§9) William’s E media, dexamet hasone (98% pure), and cell maintenance cocktail B were obtained from
(§10) Thermo Fisher Scientific (Waltham, MA, USA), the OptiThaw hepatocyte kit from Sekisui/Xenotech
(§11) (Tokyo, Japan), and the trypan blue s (Sekisui/ Xenotech, Tokyo, Japan) and the trypan blue solution from […]

[2] = Hepatocyte metabolic stability (clearance) assay, rat hepatocytes; conditions: both, Sprague Dawley, rat, hepatocytes
Protocol: as §1, §2, §3, §4, §5, §6, §7, §8, §9, §10, §11

[3] = system: Sprague Dawley rodent plasma; assay: Ultracentrifugation plasma protein binding assay, rat plasma; type: in vitro ADME; conditions: rat plasma, 10000 nM
Protocol: (§12) Information on the chemicals and materials used in the plasma protein binding work can be found in Supplementary Text S10 and Table S3. Human and rodent plasma were evaluated for plasma protein binding using ultracentrifugation, as previously described. Working solutions of 3 mM of HFPO-DA, HFPO-TA, and HFPO-TeA were prepared separately in ethanol, with each working solution containing 3 mM of testosterone (Sigma-Aldrich; ≥98% pure) as a reference compound for assay performance. An aliquot of each stock solution (13.3 µL) was added to separate 15 mL tubes with 3.987 mL of plasma for a final assay concentration of 10 µM. The plasma solutions were incubated at 37 °C and 125 rpm for 60 min. One-hour stability samples (T60 min) were drawn in triplicate and diluted in four volumes of plasma ultrafiltrate. Aliquots (1 mL) from each plasma solution were drawn in triplicate and transferred to polycarbonate tubing. These samples underwent ultracentrifugation (Beckman OptimaMax; Beckman Coulter Inc., Brea, CA, USA) at 850,000× g for 4 h at 37 °C.
(§13) The remaining plasma solutions were returned for incubation at 37 °C and 125 rpm for an additional 4 h. Five-hour stability samples (T300 min) were then drawn in triplicate and diluted in four volumes of plasma ultrafiltrate. After ultracentrifugation, the aqueous fraction (AF) was collected by transferring the supernatant to a new tube and diluting in an equal volume of plasma for matrix matching. All samples were combined with 3 volumes of ice-cold ACN containing 16 ng/mL of ^13C3-HFPO-DA and 16 ng/mL of ^13C-Testosterone (Cambridge Isotope Laboratories; 98% pure). Samples were vigorously mixed, stored for 10 min at −20 °C, and then centrifuged at 12,000× g for 10 min at 4 °C. Supernatants were collected then stored at −70 °C prior to analysis.
(§14) Fraction unbound (fu) in plasma (fup) and percent stability calculations are detailed in Supplementary Text S10. Hepatic clearance, the fu in blood (fub) (fu in plasma adjusted for blood:plasma partitioning), and renal clearance were used to derive the steady-state concentration (Css) of each compound that will be used for in vitro–in vivo extrapolation (IVIVE). Renal clearance was calculated using the glomerular filtration rate (a species-dependent constant) and the fub. The Css calculation is detailed in Supplementary Text S11.
(§15) The gradient is available in Table S11. […]
(§16) Chemical stability in plasma was assessed
(§17) (F) Percent Stability = T300minutesT60minutes∗100

[4] = as above; type: in vitro ADME; conditions: both sexes, Sprague Dawley, rat, rat plasma, 10000 nM
Protocol: as §12, §13, §14, §15, §16, §17

Human plasma = assay: Ultracentrifugation plasma protein binding assay, human plasma; type: in vitro ADME; conditions: for Experimental fup (average fraction unbound in plasma): 10 µM, ultracentrifugation; for Average Stability (T5hr/ T1hr) / Aqueous Fraction concentration / Fraction Unbound in plasma (fup) / Stability (T5hr/ T1hr) / Time 1 hr concentration / Time 5 hr concentration: 10000 nM; for Average Stability (T5hr/ T1hr): 37 °C; for Aqueous Fraction concentration: after ultracentrifugation; for Aqueous Fraction concentration / Fraction Unbound in plasma (fup) / Stability (T5hr/ T1hr) / Time 1 hr concentration / Time 5 hr concentration: replicates A-C
Protocol: as §12, §13, §14, §15, §16, §17

[5] = as above; type: in vitro ADME; conditions: both sexes, human
Protocol: as §12, §13, §14, §15, §16, §17

CC(C)NCC(O)COc1cccc2ccccc12 (stereo not shown) [Propranolol, reference compound]
half-life at 1 µM ([1]; HT-Background Half Life, heat treated human hepatocytes): 12.3 h | half-life at 1 µM ([1]; Half Life, human hepatocytes, time in min): 1.63 h | half-life at 1000 nM [2]: 0.261 h

C[C@]12CC[C@H]3[C@@H](CCC4=CC(=O)CC[C@@]43C)[C@@H]1CC[C@@H]2O [Testosterone]
Average Stability (T5hr/ T1hr) [3]: 1.0825 and 0.9487 and 1.0344 | Aqueous Fraction, Rep A ([3]; Rep A): 659.2 nM and 463 nM and 481 nM | Fraction Unbound in plasma (fup), Rep A ([3]; Rep A): 0.05346 and 0.05095 | Stability (T5hr/ T1hr), Rep A ([3]; Rep A): 1.0325 and 0.8708 and 1.0149 | Time 1 hr concentration, Rep A ([3]; Rep A): 11.552 µM and 9.9536 µM and 9.3008 µM | Time 5 hr concentration, Rep A ([3]; Rep A): 11.928 µM and 8.6672 µM and 9.4392 µM | Aqueous Fraction, Rep B ([3]; Rep B): 678.4 nM and 491 nM and 472 nM | Fraction Unbound in plasma (fup), Rep B ([3]; Rep B): 0.0545 | Stability (T5hr/ T1hr), Rep B ([3]; Rep B): 1.1304 and 0.9004 | Time 1 hr concentration, Rep B ([3]; Rep B): 10.184 µM and 10.0112 µM and 8.783 µM | Time 5 hr concentration, Rep B ([3]; Rep B): 11.512 µM and 9.0136 µM | Aqueous Fraction, Rep C ([3]; Rep C): 681.6 nM and 481.28 nM and 439 nM | Fraction Unbound in plasma (fup), Rep C ([3]; Rep C): 0.04493 and 0.05209 | Stability (T5hr/ T1hr), Rep C ([3]; Rep C): 1.0845 and 1.0750 and 1.0540 | Time 1 hr concentration, Rep C ([3]; Rep C): 12.408 µM and 9.964 µM and 7.99 µM | Time 5 hr concentration, Rep C ([3]; Rep C): 13.456 µM and 10.7112 µM and 8.4216 µM | Average fup (fraction unbound in plasma) ([3]; ultracentrifugation): 0.0510 and 0.0515 | fraction unbound at 4 h, 10 µM ([4]; Rep A, read-out: Fraction Unbound in plasma (fup), Rep A): 0.0553 | fraction unbound at 4 h, 10 µM ([4]; Rep B, read-out: Fraction Unbound in plasma (fup), Rep B): 0.0589 | fraction unbound at 4 h, 10 µM ([4]; Rep C, read-out: Fraction Unbound in plasma (fup), Rep C): 0.0507 | fraction unbound at 4 h, 10 µM ([4]; ultracentrifugation, read-out: Average fup (fraction unbound in plasma)): 0.0549 | Experimental fup (average fraction unbound in plasma) (Human plasma): 0.0417 | Experimental fup (average fraction unbound in plasma) (Human plasma; listed as Tesosterone): 0.0359 | Average Stability (T5hr/ T1hr) (Human plasma): 1.1059 and 0.9812 | Average Stability (T5hr/ T1hr) (Human plasma; listed as Tesosterone): 1.0002 | Aqueous Fraction concentration (Human plasma): 546.88 nM and 521.28 nM and 574.4 nM and 376.32 nM and 357.12 nM and 381.76 nM | Aqueous Fraction concentration (Human plasma; listed as Tesosterone): 293.12 nM and 277.12 nM and 292.16 nM | Fraction Unbound in plasma (fup) (Human plasma): 0.0442 and 0.0462 and 0.0429 and 0.0406 and 0.0415 | Stability (T5hr/ T1hr) (Human plasma): 0.9564 and 1.2770 and 1.0843 and 0.9797 and 0.9599 and 1.0039 | Time 1 hr concentration (Human plasma): 10.6456 µM and 9.2344 µM and 11.4704 µM and 8.9504 µM and 9.1664 µM and 9.1736 µM | Time 5 hr concentration (Human plasma): 10.1816 µM and 11.792 µM and 12.4368 µM and 8.7688 µM and 8.7984 µM and 9.2096 µM | Fraction Unbound in plasma (fup) (Human plasma; listed as Tesosterone): 0.0369 and 0.0320 and 0.0386 | Stability (T5hr/ T1hr) (Human plasma; listed as Tesosterone): 0.9569 and 1.1423 and 0.9014 | Time 1 hr concentration (Human plasma; listed as Tesosterone): 8.3008 µM and 7.576 µM and 8.3888 µM | Time 5 hr concentration (Human plasma; listed as Tesosterone): 7.9432 µM and 8.6544 µM and 7.5616 µM | fraction unbound at 4 h, 10 µM ([5]; plasma, 10 µM, ultracentrifugation, read-out: Experimental fup (average fraction unbound in plasma)): 0.048 | fraction unbound at 4 h, 10 µM ([5]; pooled human plasma, 10000 nM, replicates A-C, read-out: Fraction Unbound in plasma (fup)): 0.0537
